The values that follow come from PubChem BioAssay (NCI).

Some test systems named below: UACC-62 melanoma; M14 melanoma; BT-549 breast; NCI/ADR-RES ovarian; HCT-116 colon; HL-60(TB) leukemia; A549 NSCLC; OVCAR-3 ovarian.
Experiment in all cases: NCI tumour cell line growth inhibition, 48 h

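Values below derive from 48-hour exposures of cells grown in 96-well plates, with endpoints linearly interpolated between the two concentrations bracketing the appropriate inhibition level. Abbreviation: GI50, concentration required for 50% inhibition of growth. TGI: concentration producing complete growth inhibition.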

Regarding `C[C@H]1CNC(=O)c2cnn3ccc(nc23)N[C@H](C)c2cc(F)ccc2O1`, the GI50 with UACC-62 melanoma was 2.32 µM; in the assay with M14 melanoma it was 1.78 µM; with BT-549 breast it was 1.1 µM; in the assay on NCI/ADR-RES ovarian it was 8.63 µM; in the assay with HCT-116 colon, 0.559 µM; in the assay on HL-60(TB) leukemia, 4.66 µM. The GI50 in the assay with A549 NSCLC is 0.937 µM; in the assay on OVCAR-3 ovarian it was 1.32 µM. Further, the TGI in the assay on UACC-62 melanoma is 39 µM; in the assay on M14 melanoma, over 100 µM; with BT-549 breast, 2.52 µM; in the assay on NCI/ADR-RES ovarian, 47.4 µM; with HCT-116 colon, 16.9 µM; with HL-60(TB) leukemia it was over 62.5 µM. In addition, the figures for the TGI in the assay with A549 NSCLC and with OVCAR-3 ovarian were 16.4 µM and 19.6 µM, respectively.
Turning to `COc1ccc2oc(-c3ccc(OC)c(OC)c3OC)cc(=O)c2c1`, the TGI was over 100 µM in the assay on UACC-62 melanoma; over 100 µM in the assay on M14 melanoma; over 100 µM in the assay with HCT-116 colon; 55 µM in the assay with HL-60(TB) leukemia; over 100 µM in the assay with A549 NSCLC; over 100 µM in the assay on OVCAR-3 ovarian.
In the case of `C=C1C(=O)O[C@H]2[C@H]1CC/C(COC(=O)OC/C1=C/CC[C@@]3(C)O[C@H]3[C@H]3OC(=O)[C@@H](CN(C)C)[C@@H]3CC1)=C\CC[C@@]1(C)O[C@@H]21`, the GI50 in the assay on UACC-62 melanoma was 1.85 µM; with M14 melanoma it was 1.54 µM; in the assay on BT-549 breast, 1.41 µM; in the assay on NCI/ADR-RES ovarian, 12.8 µM; in the assay with HCT-116 colon, 1.13 µM; in the assay with HL-60(TB) leukemia, 0.233 µM. The GI50 was 10.8 µM in the assay on A549 NSCLC and 0.501 µM in the assay with OVCAR-3 ovarian. Besides, the TGI in the assay with UACC-62 melanoma was 5.13 µM; in the assay with M14 melanoma it was 3.35 µM; with BT-549 breast it was 2.8 µM; with NCI/ADR-RES ovarian it was 29.7 µM; in the assay on HCT-116 colon it was 2.35 µM; in the assay with HL-60(TB) leukemia, 0.845 µM. Also, the TGI came to 24.3 µM in the assay on A549 NSCLC and 1.7 µM in the assay with OVCAR-3 ovarian.
Regarding `CCCCCCCCCCCCCCCCCCNC(=S)/N=C/c1c(O)c2ccccc2[nH]c1=O`, the TGI in the assay with M14 melanoma worked out at 35.5 µM; in the assay on BT-549 breast, 38 µM; in the assay on NCI/ADR-RES ovarian, 35.1 µM; in the assay on HCT-116 colon, 30.4 µM; with HL-60(TB) leukemia, 17.9 µM; in the assay with A549 NSCLC it was 47.6 µM. In the assay with OVCAR-3 ovarian, this compound came in with a TGI of 37.8 µM.
With `Nc1nc(SCc2ccccc2Cl)cc(C(=O)O)n1`, the TGI in the assay on UACC-62 melanoma, in the assay with M14 melanoma, in the assay with BT-549 breast, in the assay with NCI/ADR-RES ovarian, in the assay with HCT-116 colon and in the assay on HL-60(TB) leukemia was over 100 µM throughout. Besides, the TGI in the assay with A549 NSCLC was over 100 µM; in the assay with OVCAR-3 ovarian, 89.2 µM.
Regarding `COc1cc(C(=O)O[C@H](C(=O)NCCN(C)CCNC(=O)[C@@H](OC(=O)c2cc(OC)cc3c(C)cccc23)[C@]2(C)CO2)[C@]2(C)CO2)c2cccc(C)c2c1`, the GI50 is 0.154 µM with UACC-62 melanoma, 0.342 µM in the assay with BT-549 breast, under 0.0506 µM with NCI/ADR-RES ovarian and 0.0751 µM in the assay with HCT-116 colon. Also, the TGI in the assay on UACC-62 melanoma was determined as 0.338 µM; in the assay on BT-549 breast it was 4.85 µM; in the assay with NCI/ADR-RES ovarian, 1.3 µM; in the assay with HCT-116 colon it was 2.93 µM.
With `O=C(Nc1ccc(F)cc1)Nc1ccc(Br)c(C(F)(F)F)c1`, the GI50 in the assay on UACC-62 melanoma was 2.29 µM; in the assay on M14 melanoma, 2.29 µM; with BT-549 breast it was 2.05 µM; in the assay with NCI/ADR-RES ovarian, 2.51 µM; in the assay on HCT-116 colon, 1.72 µM; with HL-60(TB) leukemia, 1.87 µM. Moreover, the values for the GI50 in the assay on A549 NSCLC and in the assay with OVCAR-3 ovarian were 2.34 µM and 1.65 µM, respectively. Also, the TGI came out at 10.1 µM in the assay on UACC-62 melanoma; 7.41 µM with M14 melanoma; 7.4 µM with BT-549 breast; 10.1 µM with NCI/ADR-RES ovarian; 9.33 µM with HCT-116 colon; 5.19 µM in the assay on HL-60(TB) leukemia. The TGI was 12.8 µM with A549 NSCLC and 11.6 µM with OVCAR-3 ovarian.
In the case of `C=C1C(=O)O[C@H]2[C@H]1CC/C(Cn1cc(-c3ccc(F)cc3)nn1)=C\CC[C@@]1(C)O[C@@H]21`, the GI50 in the assay with UACC-62 melanoma was 1.26 µM; with M14 melanoma, 0.944 µM; in the assay with BT-549 breast, 0.838 µM; with NCI/ADR-RES ovarian it was 3.05 µM; in the assay with HCT-116 colon, 0.295 µM; in the assay with HL-60(TB) leukemia, 0.728 µM. Besides, the GI50 is 3.37 µM with A549 NSCLC and 0.491 µM in the assay on OVCAR-3 ovarian. Further, the TGI in the assay with UACC-62 melanoma came out at 2.65 µM; with M14 melanoma, 2.44 µM; in the assay on BT-549 breast it was 2.13 µM; in the assay on NCI/ADR-RES ovarian it was 14 µM; in the assay on HCT-116 colon, 1.21 µM; in the assay with HL-60(TB) leukemia, 2.76 µM. Moreover, the results for the TGI in the assay with A549 NSCLC and in the assay with OVCAR-3 ovarian were 12.9 µM and 1.69 µM, respectively.
`O=C1C=Cc2c1ccc1ccccc21`: the GI50 in the assay on UACC-62 melanoma is 9.66 µM; in the assay on M14 melanoma it was 18.9 µM; in the assay with BT-549 breast it was 31.4 µM; in the assay on NCI/ADR-RES ovarian it was 31.9 µM; in the assay on HCT-116 colon, 27 µM; in the assay on A549 NSCLC it was 18.3 µM. The TGI is 70.9 µM with UACC-62 melanoma; 60.3 µM with M14 melanoma; 89.9 µM in the assay with BT-549 breast; over 100 µM in the assay with NCI/ADR-RES ovarian; over 100 µM in the assay with HCT-116 colon; 65.8 µM with A549 NSCLC.
Turning to `CC1(C)OC(=O)C(C#N)=C1C[n+]1ccccc1`, the TGI with M14 melanoma, with NCI/ADR-RES ovarian, with HL-60(TB) leukemia and in the assay with OVCAR-3 ovarian was over 10 µM in each case.
As to `ClCc1ccccc1Cn1cnc2c(Cl)ncnc21`, the GI50 in the assay with UACC-62 melanoma was 3.28 µM; in the assay on M14 melanoma, 1.94 µM; in the assay with BT-549 breast, 2 µM; with NCI/ADR-RES ovarian, 2.21 µM; with HCT-116 colon it was 1.91 µM; in the assay with A549 NSCLC, 7.73 µM. Further, in the assay on OVCAR-3 ovarian, the GI50 is 1.4 µM. The TGI with UACC-62 melanoma came to 6.66 µM; in the assay with M14 melanoma it was 3.74 µM; in the assay on BT-549 breast, 5.51 µM; with NCI/ADR-RES ovarian, 4.72 µM; in the assay on HCT-116 colon it was 3.69 µM; in the assay with A549 NSCLC, 25.8 µM. This compound also yielded a TGI with OVCAR-3 ovarian of 3.53 µM.
Turning to `Cc1nc(N)nc(N)c1CCCc1ccccc1`, the TGI in the assay with UACC-62 melanoma was over 100 µM; in the assay with M14 melanoma it was 64.2 µM; in the assay with HCT-116 colon, over 100 µM; in the assay with HL-60(TB) leukemia, 71.7 µM; in the assay with A549 NSCLC it was over 100 µM; in the assay with OVCAR-3 ovarian, over 100 µM.
For the compound `CC(C)C(=O)c1c(C(F)(F)F)n([O-])c2cc(F)c(F)cc2[n+]1=O`, the GI50 was 0.666 µM in the assay with UACC-62 melanoma; 0.0708 µM with M14 melanoma; 0.587 µM in the assay with BT-549 breast; 0.2 µM in the assay on NCI/ADR-RES ovarian; 1.38 µM with A549 NSCLC; 0.667 µM in the assay with OVCAR-3 ovarian. Besides, the TGI was found to be 1.92 µM in the assay with UACC-62 melanoma; 0.387 µM with M14 melanoma; 1.9 µM in the assay with BT-549 breast; 0.545 µM with NCI/ADR-RES ovarian; 4.14 µM in the assay on A549 NSCLC; 2.01 µM with OVCAR-3 ovarian.
Regarding `CCOC(=O)C(=CNC(=S)N=Nc1c(O)[nH]c2ccccc12)C(=O)OCC`, the TGI in the assay on UACC-62 melanoma, in the assay on M14 melanoma, with NCI/ADR-RES ovarian, with HCT-116 colon, with HL-60(TB) leukemia and with A549 NSCLC was over 100 µM in each case. This compound also returned a TGI with OVCAR-3 ovarian of over 100 µM.
In the case of `COc1ccc(/C=C2\SC(=Nc3ccccc3)NC2=O)cc1`, the GI50 is 4.79 µM with UACC-62 melanoma; 45.7 µM with BT-549 breast; 4.61 µM in the assay on NCI/ADR-RES ovarian; 3.4 µM in the assay on HCT-116 colon; 3.53 µM in the assay with HL-60(TB) leukemia; 4.74 µM with A549 NSCLC. Besides, the GI50 in the assay on OVCAR-3 ovarian was 3.67 µM. Moreover, the TGI with UACC-62 melanoma was over 100 µM; with BT-549 breast, over 100 µM; in the assay with NCI/ADR-RES ovarian it was over 100 µM; with HCT-116 colon it was 12.9 µM; in the assay on HL-60(TB) leukemia, over 100 µM; in the assay on A549 NSCLC, 26.7 µM. For the same compound, the TGI in the assay on OVCAR-3 ovarian turned out to be 11.2 µM.
As for `CO/N=C(\C([O-])=N\[n+]1cnn(CC(=O)OC(C)(C)C)c1)c1csc(NC(c2ccccc2)(c2ccccc2)c2ccccc2)n1`, the TGI in the assay with M14 melanoma, with BT-549 breast, in the assay on NCI/ADR-RES ovarian, in the assay with HCT-116 colon, with HL-60(TB) leukemia and in the assay with A549 NSCLC was over 10 µM in each case. In the assay on OVCAR-3 ovarian, this compound displayed a TGI of over 10 µM.
With `COC1=CC(c2ccc[nH]2)=N/C1=C\c1[nH]c(C)c(CC(=O)OCc2ccccc2)c1C`, the GI50 with M14 melanoma is 0.233 µM; in the assay with BT-549 breast it was 0.432 µM; in the assay with NCI/ADR-RES ovarian it was 0.444 µM; in the assay with HCT-116 colon, 0.219 µM; in the assay on HL-60(TB) leukemia, 0.537 µM; in the assay with A549 NSCLC, 0.361 µM. Besides, in the assay on OVCAR-3 ovarian, the GI50 was 0.31 µM. Moreover, the TGI in the assay with M14 melanoma came out at 0.59 µM; in the assay on BT-549 breast, 3.08 µM; in the assay on NCI/ADR-RES ovarian, 1.97 µM; in the assay with HCT-116 colon it was 1.05 µM; in the assay on HL-60(TB) leukemia it was 2.44 µM; in the assay with A549 NSCLC, 6.05 µM. In the assay on OVCAR-3 ovarian, this compound came in with a TGI of 1.41 µM.
On to `Cc1c(Cl)cccc1NC(=O)/C=C/c1ccccc1`, for which the TGI in the assay with UACC-62 melanoma, in the assay with M14 melanoma, in the assay on BT-549 breast, with HCT-116 colon, in the assay with HL-60(TB) leukemia and in the assay on A549 NSCLC was over 100 µM each time. For the same compound, the TGI in the assay with OVCAR-3 ovarian is over 100 µM.
On to `COc1cc2c(cc1OC)C1Cc3ccc(OC)c(OC)c3C[N+]1([O-])CC2` (stereo not drawn), for which the TGI in the assay on M14 melanoma, in the assay on HCT-116 colon, in the assay with A549 NSCLC and with OVCAR-3 ovarian was over 100 µM throughout.
Regarding `CC(=O)OC12c3ccccc3-c3ccccc3C1C(C(=O)O)C2C(=O)O` (stereo not drawn), the TGI in the assay with M14 melanoma, in the assay on NCI/ADR-RES ovarian, in the assay with HL-60(TB) leukemia and in the assay on OVCAR-3 ovarian was over 10 µM in each case.
